Measured values reported in ChEMBL document CHEMBL2034849, “Discovery of a Potent Dihydrooxadiazole Series of Non-ATP-Competitive MK2 (MAPKAPK2) Inhibitors” (ACS Med Chem Lett, 2012).
In brackets after ≈: the same amount, converted by molar mass. Activity calls are given as the source filed them. The rule behind the calls is not given here.

How the values were obtained:
[1] = biological target: T1, MAP kinase-activated protein kinase 2 (Homo sapiens, UniProt P49137); experiment: Inhibition of MK2 using 5TAMRA-KKLNRTLSVA-COOH as substrate incubated for 30 mins prior to substrate addition measured after 30 mins by immobilized metal ion affinity-based fluorescence polarization assay in presence of 100 uM ATP
Target sequence in this assay (P49137 whole entry): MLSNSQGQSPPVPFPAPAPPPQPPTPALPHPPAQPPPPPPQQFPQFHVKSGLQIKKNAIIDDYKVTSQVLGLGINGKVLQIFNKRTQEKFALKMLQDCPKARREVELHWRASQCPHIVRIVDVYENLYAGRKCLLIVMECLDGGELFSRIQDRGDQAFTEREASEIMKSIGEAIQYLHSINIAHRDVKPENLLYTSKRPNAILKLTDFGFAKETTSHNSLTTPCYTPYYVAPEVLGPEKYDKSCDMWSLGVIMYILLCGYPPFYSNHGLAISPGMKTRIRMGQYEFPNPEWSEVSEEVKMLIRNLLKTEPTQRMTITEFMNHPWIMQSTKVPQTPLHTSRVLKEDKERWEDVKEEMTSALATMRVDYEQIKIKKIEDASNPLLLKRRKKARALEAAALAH

[2] = biological target: T1, MAP kinase-activated protein kinase 2; experiment: Inhibition of MK2 in human THP1 cells assessed as inhibition of LPS-induced HSP27 Ser78 phosphorylation incubated for 60 mins prior to LPS-induction measured after 60 mins; type: cell-based, THP-1
Target sequence in this assay (P49137 whole entry): as above

[3] = Solubility of the compound in 2% DMSO at pH 7.4; type: physicochemical
Caco-2 = experiment: Permeability across human Caco2 cells; type: ADME, cell-based
[4] = Solubility of the compound in 10 mM sodium phosphate buffer at pH 7.4; type: physicochemical
[5] = Clearance in rat hepatocyte assessed per million cells; type: ADME, cell-based; details: hepatocytes, read-out: CLH
[6] = Plasma protein binding in human; type: ADME, cell-free; details: read-out: PPB (converted)
[7] = Plasma protein binding in rat; type: ADME, cell-free; details: read-out: PPB (converted)
[8] = biological target: T1, MAP kinase-activated protein kinase 2; experiment: Non-competitive inhibition of MK2 using 5TAMRA-KKLNRTLSVA-COOH as substrate by immobilized metal ion affinity-based fluorescence polarization assay in presence of 1 to 100 uM ATP
Target sequence in this assay (P49137 whole entry, looked up): as the sequence (P49137 whole entry) above

| Compound | IC50 [1] [nM] | other results |
| --- | --- | --- |
| Clc1ccc(-c2ccc(C3=NOC(c4cnc[nH]4)N3c3ccc(N4CCNCC4)cc3)o2)cc1 (stereo not drawn) | 70 | EC50 [2]: 2400 nM |
| Clc1ccc(-c2ccc(C3=NOC(c4ccncc4)N3c3ccc(C4CCNCC4)cc3)o2)cc1 (stereo not drawn) | 190 | – |
| Fc1ccc(C2ON=C(c3ccc(-c4ccc(Cl)cc4)o3)N2c2ccc(N3CCNCC3)cc2)c(F)c1 (stereo not drawn) | 100 | – |
| Clc1ccc(-c2ccc(C3=NOC(c4ccccc4-c4cncnc4)N3c3ccc(N4CCNCC4)cc3)o2)cc1Cl (stereo not drawn) | 970 | – |
| Clc1ccc(-c2ccc(-c3nocc3-c3ccc(N4CCNCC4)cc3)o2)cc1 | 3400 | – |
| O=c1onc(-c2ccc(-c3ccc(Cl)cc3)o2)n1-c1ccc(N2CCNCC2)cc1 | 6200 | – |
| N#Cc1ccc(-c2ccc(C3=NOC(c4ccccc4-c4cncnc4)N3c3ccc(N4CCNCC4)cc3)o2)cc1 (stereo in doubt; 38) [listing 1 of 2 here] | 6 | solubility [3]: 20 µM (≈ 11.1 µg/mL); permeability (Caco-2): permeable; solubility [4]: 20 µM (≈ 11.1 µg/mL); EC50 [2]: 170 nM; hepatocyte CLint [5]: 35 µL/min/1e6 cells; fraction unbound [6]: 0.035; fraction unbound [7]: 0.031 |
| Clc1ccc(-c2ccc(C3=NOC(c4cccnc4)N3c3ccc(N4CCNCC4)cc3)o2)cc1 (stereo not drawn) | 50 | – |
| N#Cc1ccc(-c2ccc(C3=NOCCN3c3ccc(N4CCNCC4)cc3)o2)cc1 | 110 | – |
| Clc1ccc(-c2ccc(C3=NOC(c4ccncn4)N3c3ccc(N4CCNCC4)cc3)o2)cc1 (stereo not drawn) | 60 | – |
| Clc1ccc(-c2ccc(C3=NOC(c4ccccn4)N3c3ccc(N4CCNCC4)cc3)o2)cc1 (stereo not drawn) | 30 | EC50 [2]: 3000 nM |
| N#Cc1cccc(-c2ccc(C3=NOC(c4ccccc4-c4cncnc4)N3c3ccc(N4CCNCC4)cc3)o2)c1 (stereo not drawn) | 5300 | – |
| N#Cc1ccc(-c2ccc(C3=NOC(c4ccccc4-c4cncnc4)N3c3ccc(N4CCNCC4)cc3)o2)cc1 (stereo in doubt; 33) | 8 | EC50 [2]: 1200 nM |
| Fc1cc(F)cc(C2ON=C(c3ccc(-c4ccc(Cl)cc4)o3)N2c2ccc(N3CCNCC3)cc2)c1 (stereo not drawn) | 190 | – |
| N#Cc1ccc(-c2ccc(C3=NOC(c4ccccc4-c4cncnc4)N3c3ccc(N4CCNCC4)cc3)o2)cc1 (single isomer, unassigned; enantiomer 2) | 340 | – |
| Clc1ccc(-c2ccc(C3ON=C(c4ccccc4)N3c3ccc(N4CCNCC4)cc3)o2)cc1 (stereo not drawn) | 3700 | – |
| CNC(=O)c1ccc(-c2ccc(C3=NOC(c4ccccc4-c4cncnc4)N3c3ccc(N4CCNCC4)cc3)o2)cc1 (stereo not drawn) | > 10000 | – |
| FC1(F)CCN(c2ccc(N3C(c4ccc(-c5ccc(Cl)cc5)o4)=NOC3c3ccncc3)cc2)CC1 (stereo not drawn) | > 10000 | – |
| Clc1ccc(-c2ccc(C3=NOC(c4ccncc4)N3Cc3ccc(N4CCNCC4)cc3)o2)cc1 (stereo not drawn) | > 10000 | – |
| N#Cc1ccc(-c2ccc(C3=NOC(c4ccccc4-c4cncnc4)N3c3ccc(N4CCNCC4)cc3)o2)cc1 (stereo in doubt; 38) [listing 2 of 2 here] | – | inhibition [8]: Active |
| Fc1cc(-c2ccc(C3=NOC(c4ccccc4-c4cncnc4)N3c3ccc(N4CCNCC4)cc3)o2)ccc1Cl (stereo not drawn) | 220 | – |
| Clc1ccc(-c2ccc(-c3cc(-c4ccc(N5CCNCC5)cc4)on3)o2)cc1 | > 10000 | – |
| c1ccc(C2ON=C(c3ccc(-c4ccncc4)o3)N2c2ccc(N3CCNCC3)cc2)c(-c2cncnc2)c1 (stereo not drawn) | 790 | – |
| Clc1ccc(-c2ccc(C3=NOCCCN3c3ccc(N4CCNCC4)cc3)o2)cc1 | 1400 | – |
| Fc1ccc(-c2ccc(C3=NOC(c4ccccc4-c4cncnc4)N3c3ccc(N4CCNCC4)cc3)o2)cc1 (stereo not drawn) | 50 | EC50 [2]: 760 nM |
| Clc1cccc(-c2ccc(C3=NOC(c4ccccc4-c4cncnc4)N3c3ccc(N4CCNCC4)cc3)o2)c1 (stereo not drawn) | 1300 | – |
| Fc1ccc(C2ON=C(c3ccc(-c4ccc(Cl)cc4)o3)N2c2ccc(N3CCNCC3)cc2)cc1 (stereo not drawn) | 160 | – |
| Fc1ccc(C2ON=C(c3ccc(-c4ccc(Cl)cc4)o3)N2c2ccc(N3CCNCC3)cc2)nc1 (stereo not drawn) | 60 | EC50 [2]: 3700 nM |
| COc1ccc(-c2ccc(C3=NOC(c4ccccc4-c4cncnc4)N3c3ccc(N4CCNCC4)cc3)o2)cc1 (stereo not drawn) | 310 | – |
| Clc1ccc(-c2ccc(C3=NOC(c4ccncc4)N3c3ccc(N4CCNCC4)cc3)o2)cc1 (stereo not drawn) | 30 | EC50 [2]: 2700 nM |
